Results on four molecules are retold here after patent publication US20090136979A1, “Class IIA Histone Deacetylase (HDAC) Substrate” (ISTITUTO DI RICERCHE DI BIOLOGIA MOLECOLARE P. ANG, priority 2005, published 2009).

In test [1] the test system is HDAC4-FLAG. Kind of test: Enzymatic activity of HDAC4-FLAG, inhibition (Biomol assay kit and histone substrates). It counts as biochemical. Conditions: FIG. 2.
The test system of another test is HDAC from rat liver. Conditions: cited from earlier work.
The target in test [2] is T1, HDAC8 (Homo sapiens, UniProt Q9BY41).
T1 sequence (Q9BY41 1-377): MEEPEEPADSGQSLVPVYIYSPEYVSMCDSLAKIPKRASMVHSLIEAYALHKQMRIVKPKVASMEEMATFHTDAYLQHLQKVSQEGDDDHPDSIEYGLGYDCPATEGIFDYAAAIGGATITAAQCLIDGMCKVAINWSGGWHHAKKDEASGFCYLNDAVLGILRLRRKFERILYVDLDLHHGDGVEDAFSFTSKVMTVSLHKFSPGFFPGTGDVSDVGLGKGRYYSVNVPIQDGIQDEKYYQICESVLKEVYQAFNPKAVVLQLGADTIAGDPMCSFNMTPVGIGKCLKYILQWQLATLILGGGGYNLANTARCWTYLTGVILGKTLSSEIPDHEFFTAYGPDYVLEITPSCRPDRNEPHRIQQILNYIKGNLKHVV
Nature of the test: Activity on Boc-L-Lys(ε-trifluoroacetyl)-MCA compared with Biomol standard substrate, HDAC8. Type of test: biochemical. The following applies: HDAC8, FIG. 5. The source says: (§1) The activities measured on Boc-L-Lys(ε-trifluoroacetyl)-MCA were compared with activities on the Biomol standard substrate (not shown).

For the next test, the target named is HDAC1 (Homo sapiens, UniProt Q13547). Nature of the test: Activity on Boc-L-Lys(ε-trifluoroacetyl)-MCA compared with Biomol standard substrate, HDAC1. Type of test: biochemical. The following applies: HDAC1, FIG. 5.
Sequence of HDAC1 (Q13547 whole entry): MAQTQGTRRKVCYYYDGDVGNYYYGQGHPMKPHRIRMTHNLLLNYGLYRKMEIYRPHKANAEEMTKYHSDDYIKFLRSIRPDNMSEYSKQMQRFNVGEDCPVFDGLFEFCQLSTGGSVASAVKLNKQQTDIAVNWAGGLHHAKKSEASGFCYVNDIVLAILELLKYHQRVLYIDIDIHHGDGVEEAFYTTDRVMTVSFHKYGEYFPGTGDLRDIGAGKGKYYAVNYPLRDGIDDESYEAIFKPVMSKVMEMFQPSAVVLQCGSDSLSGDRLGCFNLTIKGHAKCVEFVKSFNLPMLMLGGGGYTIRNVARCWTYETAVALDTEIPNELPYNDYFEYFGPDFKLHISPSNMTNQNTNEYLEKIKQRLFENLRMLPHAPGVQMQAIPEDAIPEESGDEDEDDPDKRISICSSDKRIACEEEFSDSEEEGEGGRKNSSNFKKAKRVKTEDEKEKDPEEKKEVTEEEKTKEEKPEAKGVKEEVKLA
From the text: as §1

The next test concerns the target T2, HDAC6 (Homo sapiens, UniProt Q9UBN7).
T2 sequence (Q9UBN7 1-1215): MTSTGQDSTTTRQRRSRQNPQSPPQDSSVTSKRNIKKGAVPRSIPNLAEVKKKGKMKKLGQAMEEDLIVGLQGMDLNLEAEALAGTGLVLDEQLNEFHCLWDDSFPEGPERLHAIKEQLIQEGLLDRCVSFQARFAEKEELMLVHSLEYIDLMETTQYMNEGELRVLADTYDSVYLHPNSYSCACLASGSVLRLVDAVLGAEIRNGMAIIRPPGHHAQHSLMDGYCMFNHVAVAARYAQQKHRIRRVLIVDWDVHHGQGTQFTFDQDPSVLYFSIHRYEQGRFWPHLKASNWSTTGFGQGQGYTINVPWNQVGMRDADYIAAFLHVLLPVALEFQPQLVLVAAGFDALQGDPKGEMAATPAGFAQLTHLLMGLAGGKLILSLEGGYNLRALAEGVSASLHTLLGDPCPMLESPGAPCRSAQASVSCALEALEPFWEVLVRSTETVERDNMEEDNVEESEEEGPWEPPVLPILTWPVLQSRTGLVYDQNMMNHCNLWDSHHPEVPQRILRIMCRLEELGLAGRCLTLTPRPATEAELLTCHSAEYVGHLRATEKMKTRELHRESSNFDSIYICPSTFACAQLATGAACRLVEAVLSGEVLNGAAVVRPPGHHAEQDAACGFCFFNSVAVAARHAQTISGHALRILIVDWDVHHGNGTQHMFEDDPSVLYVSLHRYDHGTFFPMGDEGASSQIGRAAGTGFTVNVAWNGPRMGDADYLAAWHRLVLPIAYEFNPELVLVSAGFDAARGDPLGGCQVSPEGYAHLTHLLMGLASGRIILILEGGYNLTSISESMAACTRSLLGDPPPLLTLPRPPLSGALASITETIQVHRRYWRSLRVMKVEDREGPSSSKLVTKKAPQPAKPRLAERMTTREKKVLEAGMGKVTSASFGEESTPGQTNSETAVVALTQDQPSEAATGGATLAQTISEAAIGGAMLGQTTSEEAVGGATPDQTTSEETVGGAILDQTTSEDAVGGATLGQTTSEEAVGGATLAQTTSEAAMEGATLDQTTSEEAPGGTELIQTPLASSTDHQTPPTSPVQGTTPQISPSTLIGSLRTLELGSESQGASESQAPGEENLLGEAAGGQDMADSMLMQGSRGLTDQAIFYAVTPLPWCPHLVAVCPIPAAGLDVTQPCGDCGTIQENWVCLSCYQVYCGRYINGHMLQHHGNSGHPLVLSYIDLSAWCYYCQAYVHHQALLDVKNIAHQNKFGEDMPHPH
Kind of test: Activity on Boc-L-Lys(ε-trifluoroacetyl)-MCA compared with Biomol standard substrate, HDAC6. Type of test: biochemical. The following applies: HDAC6, FIG. 5.
From the text: as §1

In another test the target is HDAC3 (Homo sapiens, UniProt O15379). Nature of the test: Activity on Boc-L-Lys(ε-trifluoroacetyl)-MCA compared with Biomol standard substrate, HDAC3. Type of test: biochemical. The following applies: HDAC3, FIG. 5.
Sequence of HDAC3 (O15379 whole entry): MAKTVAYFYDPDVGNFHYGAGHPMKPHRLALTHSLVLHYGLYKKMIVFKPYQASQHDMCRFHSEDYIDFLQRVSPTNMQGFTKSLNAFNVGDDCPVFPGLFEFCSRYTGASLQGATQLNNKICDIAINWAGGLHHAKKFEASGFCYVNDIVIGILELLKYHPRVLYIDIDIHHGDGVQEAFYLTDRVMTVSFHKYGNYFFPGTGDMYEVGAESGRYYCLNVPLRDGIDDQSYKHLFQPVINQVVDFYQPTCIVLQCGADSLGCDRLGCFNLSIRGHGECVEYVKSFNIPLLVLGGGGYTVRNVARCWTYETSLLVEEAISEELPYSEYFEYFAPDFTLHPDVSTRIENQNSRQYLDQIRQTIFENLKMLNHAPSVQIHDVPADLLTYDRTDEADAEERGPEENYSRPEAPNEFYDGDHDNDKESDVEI
Sequence of HDAC3 (Q9Y618 whole entry partner): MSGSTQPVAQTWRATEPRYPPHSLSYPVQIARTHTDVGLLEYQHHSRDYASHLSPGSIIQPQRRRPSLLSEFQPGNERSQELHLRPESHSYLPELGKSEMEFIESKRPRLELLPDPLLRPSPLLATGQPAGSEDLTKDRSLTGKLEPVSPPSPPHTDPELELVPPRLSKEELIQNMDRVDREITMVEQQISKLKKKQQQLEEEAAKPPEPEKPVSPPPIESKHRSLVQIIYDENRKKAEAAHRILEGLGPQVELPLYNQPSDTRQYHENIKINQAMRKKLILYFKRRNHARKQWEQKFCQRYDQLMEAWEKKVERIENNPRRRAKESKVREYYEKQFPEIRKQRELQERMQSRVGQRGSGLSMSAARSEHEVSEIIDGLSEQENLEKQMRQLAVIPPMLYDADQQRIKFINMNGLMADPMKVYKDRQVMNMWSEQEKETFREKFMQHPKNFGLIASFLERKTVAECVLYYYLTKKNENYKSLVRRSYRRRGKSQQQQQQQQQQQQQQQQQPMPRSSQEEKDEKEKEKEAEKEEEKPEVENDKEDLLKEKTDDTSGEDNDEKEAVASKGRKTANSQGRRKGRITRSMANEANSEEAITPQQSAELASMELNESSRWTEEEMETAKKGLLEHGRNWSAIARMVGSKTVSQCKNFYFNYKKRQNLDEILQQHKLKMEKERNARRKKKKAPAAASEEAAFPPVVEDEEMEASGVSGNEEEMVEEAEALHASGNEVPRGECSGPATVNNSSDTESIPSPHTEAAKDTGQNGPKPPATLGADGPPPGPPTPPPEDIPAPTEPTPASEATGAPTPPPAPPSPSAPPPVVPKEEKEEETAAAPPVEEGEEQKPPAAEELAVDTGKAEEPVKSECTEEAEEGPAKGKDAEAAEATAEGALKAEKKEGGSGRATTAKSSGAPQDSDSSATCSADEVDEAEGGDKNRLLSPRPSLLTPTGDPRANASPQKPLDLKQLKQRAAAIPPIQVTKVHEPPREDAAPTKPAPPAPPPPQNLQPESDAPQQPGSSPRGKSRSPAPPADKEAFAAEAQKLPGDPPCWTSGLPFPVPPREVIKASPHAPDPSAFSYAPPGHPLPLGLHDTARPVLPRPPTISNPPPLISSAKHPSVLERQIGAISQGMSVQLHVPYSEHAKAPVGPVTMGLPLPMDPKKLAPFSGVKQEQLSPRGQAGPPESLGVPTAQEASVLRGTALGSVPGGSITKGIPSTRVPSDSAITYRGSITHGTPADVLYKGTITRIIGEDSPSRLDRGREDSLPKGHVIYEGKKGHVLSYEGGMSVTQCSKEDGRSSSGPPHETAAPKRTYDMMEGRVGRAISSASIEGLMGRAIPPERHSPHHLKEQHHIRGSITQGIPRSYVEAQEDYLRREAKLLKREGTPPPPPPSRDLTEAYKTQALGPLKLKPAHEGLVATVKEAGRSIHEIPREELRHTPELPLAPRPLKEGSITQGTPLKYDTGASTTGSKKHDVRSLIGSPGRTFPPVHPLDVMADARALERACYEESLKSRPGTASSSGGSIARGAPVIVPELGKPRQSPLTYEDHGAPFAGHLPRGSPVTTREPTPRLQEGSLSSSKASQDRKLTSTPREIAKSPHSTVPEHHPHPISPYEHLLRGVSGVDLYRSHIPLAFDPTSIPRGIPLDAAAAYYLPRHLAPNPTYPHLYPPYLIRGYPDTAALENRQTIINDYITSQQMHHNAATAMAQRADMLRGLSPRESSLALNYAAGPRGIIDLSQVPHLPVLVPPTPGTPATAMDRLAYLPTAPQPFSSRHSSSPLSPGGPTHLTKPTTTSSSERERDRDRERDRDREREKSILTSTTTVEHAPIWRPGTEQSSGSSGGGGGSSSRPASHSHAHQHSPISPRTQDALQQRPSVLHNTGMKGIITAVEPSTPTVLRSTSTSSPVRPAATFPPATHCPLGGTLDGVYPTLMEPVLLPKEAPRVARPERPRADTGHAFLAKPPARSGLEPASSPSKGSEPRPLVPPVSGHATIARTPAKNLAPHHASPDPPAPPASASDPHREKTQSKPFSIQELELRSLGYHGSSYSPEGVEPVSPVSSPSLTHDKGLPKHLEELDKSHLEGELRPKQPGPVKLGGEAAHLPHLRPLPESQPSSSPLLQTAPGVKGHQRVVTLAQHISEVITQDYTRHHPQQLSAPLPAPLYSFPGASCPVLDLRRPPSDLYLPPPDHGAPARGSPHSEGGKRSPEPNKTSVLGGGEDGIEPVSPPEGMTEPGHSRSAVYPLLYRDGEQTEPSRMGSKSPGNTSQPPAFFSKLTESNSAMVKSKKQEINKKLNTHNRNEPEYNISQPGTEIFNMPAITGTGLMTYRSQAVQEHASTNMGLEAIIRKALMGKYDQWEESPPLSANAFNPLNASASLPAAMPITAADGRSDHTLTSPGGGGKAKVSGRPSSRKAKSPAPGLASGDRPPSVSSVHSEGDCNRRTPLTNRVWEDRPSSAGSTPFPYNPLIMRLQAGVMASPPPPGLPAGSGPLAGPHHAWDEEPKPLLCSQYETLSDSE
From the text: as §1

Test [3] concerns the target T1, HDAC8. Conditions: substrate of (recombinant) human HDAC8; cited from earlier work.
The target in test [4] is T3, HDAC4-CD (Homo sapiens, UniProt P56524).
T3 construct: The HDAC4 C-terminal region from T-653 to L-1084; 6xHis; made in house; host or cells: E. coli BL21 Star (DE3)
T3 sequence (P56524 653-1084): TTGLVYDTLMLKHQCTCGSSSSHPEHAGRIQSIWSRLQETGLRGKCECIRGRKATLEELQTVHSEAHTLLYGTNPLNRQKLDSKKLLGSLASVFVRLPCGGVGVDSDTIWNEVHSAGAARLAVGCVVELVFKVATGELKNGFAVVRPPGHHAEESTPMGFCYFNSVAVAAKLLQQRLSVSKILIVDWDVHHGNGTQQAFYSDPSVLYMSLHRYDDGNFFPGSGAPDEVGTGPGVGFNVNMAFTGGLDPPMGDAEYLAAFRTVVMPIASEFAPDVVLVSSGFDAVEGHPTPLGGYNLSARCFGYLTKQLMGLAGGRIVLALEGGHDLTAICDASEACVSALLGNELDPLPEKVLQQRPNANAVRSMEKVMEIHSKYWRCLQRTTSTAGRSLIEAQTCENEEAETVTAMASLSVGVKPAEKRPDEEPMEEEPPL
Kind of test: Activity on Boc-L-Lys(ε-trifluoroacetyl)-MCA compared with Biomol standard substrate, HDAC4-CD. It counts as biochemical. Conditions: FIG. 5.
From the text: as §1

For test [5], the target named is T3, HDAC4-CD. Nature of the test: Inhibition of HDAC4-CD activity on Lys-Trifluoro substrate. It counts as biochemical. The following applies: HDAC4-CD 0.5 nM, FIG. 6.
The target of test [6] is T4, HDAC4-FLAG (Homo sapiens, UniProt P56524).
T4 construct: the full length HDAC4protein (HDAC4-FLAG) was also analysed; FLAG (C); made in house
T4 sequence (P56524 whole entry): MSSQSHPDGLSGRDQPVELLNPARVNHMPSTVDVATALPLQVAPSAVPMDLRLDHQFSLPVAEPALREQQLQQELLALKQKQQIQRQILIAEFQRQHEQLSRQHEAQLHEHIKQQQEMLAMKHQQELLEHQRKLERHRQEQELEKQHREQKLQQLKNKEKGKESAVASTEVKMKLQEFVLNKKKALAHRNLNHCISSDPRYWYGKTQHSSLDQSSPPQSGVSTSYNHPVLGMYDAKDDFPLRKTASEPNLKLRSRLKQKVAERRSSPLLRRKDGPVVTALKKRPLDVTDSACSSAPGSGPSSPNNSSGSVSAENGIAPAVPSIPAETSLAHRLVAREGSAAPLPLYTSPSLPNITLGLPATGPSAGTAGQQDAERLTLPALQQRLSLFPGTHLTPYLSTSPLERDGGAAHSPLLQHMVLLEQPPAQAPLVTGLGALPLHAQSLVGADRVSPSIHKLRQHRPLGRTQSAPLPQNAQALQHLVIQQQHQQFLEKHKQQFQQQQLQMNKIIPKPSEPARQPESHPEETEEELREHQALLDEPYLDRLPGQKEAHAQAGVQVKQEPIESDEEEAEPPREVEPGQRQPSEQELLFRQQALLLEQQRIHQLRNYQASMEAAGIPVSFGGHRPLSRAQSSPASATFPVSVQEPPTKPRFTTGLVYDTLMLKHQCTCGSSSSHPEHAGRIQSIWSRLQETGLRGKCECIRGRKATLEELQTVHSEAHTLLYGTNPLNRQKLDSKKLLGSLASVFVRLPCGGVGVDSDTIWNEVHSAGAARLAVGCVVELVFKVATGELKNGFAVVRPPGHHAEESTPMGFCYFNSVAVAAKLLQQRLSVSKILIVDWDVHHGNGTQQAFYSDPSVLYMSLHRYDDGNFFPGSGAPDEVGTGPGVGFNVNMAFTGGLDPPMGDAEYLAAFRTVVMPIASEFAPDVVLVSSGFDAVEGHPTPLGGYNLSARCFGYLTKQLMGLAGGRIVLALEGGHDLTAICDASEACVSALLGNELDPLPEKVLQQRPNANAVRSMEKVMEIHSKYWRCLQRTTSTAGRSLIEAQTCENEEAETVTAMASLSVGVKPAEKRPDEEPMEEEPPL
Type of test: binding. Conditions: cross-linking assay.

As for `Nc1ccccc1NC(=O)c1ccc(CNC(=O)OCc2cccnc2)cc1` [MS27-275], the inhibition constants result with HDAC4-FLAG [1] is “good inhibition constants”.
For `CC(=O)NCCCC[C@H](NC(=O)OC(C)(C)C)C(=O)Nc1ccc2c(C)cc(=O)oc2c1` [Boc-L-Lys(ε-acetyl)-MCA, reference compound], the Km (commonly the substrate concentration at which the rate is half of its maximum) in the test on HDAC from rat liver (substrate of HDAC from rat liver (mixture of HDAC1, 2 and 3)) was 3.7 µM.
Turning to `Cc1cc(=O)oc2ccc(NC(=O)[C@H](CCCCNC(=O)C(F)(F)F)NC(=O)OC(C)(C)C)cc12` [Boc-L-Lys(ε-trifluoroacetyl)-MCA, tert-Butyl [(1S)-5-(trifluoroacetylamino)-1-[[(4-methyl-2-oxo-2H-1-benzopyran-6-yl)amino]carbonyl]pentyl]-carbamic Acid Ester], the “enzyme activity on substrate compared with Biomol standard substrate” value on HDAC8 [2] was “work better”; at HDAC1, “did not work”; on HDAC6, “did not work”; at HDAC3, “works with the same efficiency”; at HDAC4-CD [4], “work better”. Further, the “conversion of substrate by rat liver HDAC” value in the test with HDAC from rat liver (rat liver HDAC) is on record as “did not convert”. Further, at HDAC8 [3], the Michaelis constant (Km) is 247 µM.
As for `O=C(/C=C/c1ccc(CN(CCO)CCc2c[nH]c3ccccc23)cc1)NO` [LAQ824], the “inhibition of HDAC4-CD activity on Lys-Trifluoro substrate” value against HDAC4-CD [5] was “inhibited”. Also, the “binding to HDAC4-FLAG” value at HDAC4-FLAG [6] was “able to significantly and specifically bind”.
